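Assay format: 96-well plates, 48-hour exposure. At the GI50, growth is halved. TGI marks complete inhibition of growth.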
Tests used:
Assay in all cases: inhibition of tumour cell growth, NCI panel, 48 h
LOX IMVI melanoma = tested on: LOX IMVI melanoma
SK-MEL-28 melanoma = tested on: SK-MEL-28 melanoma
UO-31 renal = tested on: UO-31 renal
HOP-62 NSCLC = tested on: HOP-62 NSCLC
RPMI-8226 leukemia = tested on: RPMI-8226 leukemia
MCF7 breast = tested on: MCF7 breast
RXF 393 renal = tested on: RXF 393 renal
SNB-75 CNS = tested on: SNB-75 CNS
HT29 colon = tested on: HT29 colon
SF-268 CNS = tested on: SF-268 CNS
A549 NSCLC = tested on: A549 NSCLC
PC-3 prostate = tested on: PC-3 prostate
HOP-92 NSCLC = tested on: HOP-92 NSCLC
NCI-H522 lung = tested on: NCI-H522 lung
M14 melanoma = tested on: M14 melanoma
NCI-H23 lung = tested on: NCI-H23 lung
NCI/ADR-RES ovarian = tested on: NCI/ADR-RES ovarian
HL-60(TB) leukemia = tested on: HL-60(TB) leukemia
OVCAR-8 ovarian = tested on: OVCAR-8 ovarian
MOLT-4 leukemia = tested on: MOLT-4 leukemia
IGROV1 ovarian = tested on: IGROV1 ovarian
SR leukemia = tested on: SR leukemia
SF-295 CNS = tested on: SF-295 CNS
U251 CNS = tested on: U251 CNS
ACHN renal = tested on: ACHN renal
MALME-3M melanoma = tested on: MALME-3M melanoma
HS 578T breast = tested on: HS 578T breast

SMILES: Clc1cccc(/C=N/Nc2nc(N/N=C/c3cccc(Cl)c3)nc(N3CCOCC3)n2)c1
- GI50 (LOX IMVI melanoma): 2.99 µM
- TGI (LOX IMVI melanoma): > 100 µM
- GI50 (SK-MEL-28 melanoma): 2.86 µM
- TGI (SK-MEL-28 melanoma): 7.74 µM
- GI50 (UO-31 renal): 1.61 µM
- TGI (UO-31 renal): > 100 µM
- GI50 (HOP-62 NSCLC): 4.67 µM
- TGI (HOP-62 NSCLC): > 100 µM
- GI50 (RPMI-8226 leukemia): 1.9 µM
- TGI (RPMI-8226 leukemia): 6.79 µM
- GI50 (MCF7 breast): 2.47 µM
- TGI (MCF7 breast): > 100 µM
- GI50 (RXF 393 renal): 1 µM
- TGI (RXF 393 renal): 3.51 µM
- GI50 (SNB-75 CNS): 3.33 µM
- TGI (SNB-75 CNS): > 100 µM
- GI50 (HT29 colon): 1.34 µM
- TGI (HT29 colon): > 100 µM
- GI50 (SF-268 CNS): 5.1 µM
- TGI (SF-268 CNS): > 100 µM
- GI50 (A549 NSCLC): 3.57 µM
- TGI (A549 NSCLC): > 100 µM
- GI50 (PC-3 prostate): 2.91 µM
- TGI (PC-3 prostate): > 100 µM
- GI50 (HOP-92 NSCLC): 2.17 µM
- TGI (HOP-92 NSCLC): > 100 µM
- GI50 (NCI-H522 lung): 3.21 µM
- TGI (NCI-H522 lung): > 100 µM
- GI50 (M14 melanoma): 3.08 µM
- TGI (M14 melanoma): > 100 µM
- GI50 (NCI-H23 lung): 4.05 µM
- TGI (NCI-H23 lung): > 100 µM
- GI50 (NCI/ADR-RES ovarian): 3.39 µM
- TGI (NCI/ADR-RES ovarian): > 100 µM
- GI50 (HL-60(TB) leukemia): 0.505 µM
- TGI (HL-60(TB) leukemia): 3.08 µM
- GI50 (OVCAR-8 ovarian): 4.58 µM
- TGI (OVCAR-8 ovarian): > 100 µM
- GI50 (MOLT-4 leukemia): 1.49 µM
- TGI (MOLT-4 leukemia): 4.4 µM
- GI50 (IGROV1 ovarian): 4.61 µM
- TGI (IGROV1 ovarian): > 100 µM
- GI50 (SR leukemia): 0.329 µM
- TGI (SR leukemia): 2.58 µM
- GI50 (SF-295 CNS): 4.13 µM
- TGI (SF-295 CNS): > 100 µM
- GI50 (U251 CNS): 3.49 µM
- TGI (U251 CNS): > 100 µM
- GI50 (ACHN renal): 2.11 µM
- TGI (ACHN renal): > 100 µM
- GI50 (MALME-3M melanoma): 2.86 µM
- TGI (MALME-3M melanoma): 5.57 µM
- GI50 (HS 578T breast): 3.76 µM
- TGI (HS 578T breast): > 100 µM

— PubChem BioAssay (NCI)
